Test results reported in PubChem BioAssay (NCI).
Values after ≈ are worked out from the molar mass of the structure shown. Values joined by “and” are separate entries in the source; they are usually repeats but may differ in a detail not shown here. Equal values may be shown once.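 Cultured in 96-well plates, cells were exposed to test compound for 48 hours across five concentrations. The concentration for 50% growth inhibition is given as GI50. TGI marks complete inhibition of growth.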

What was measured:
Assay in all cases: DTP human tumour cell line panel, 48 h
[1] = test system: NCI-H522 lung
[2] = test system: MDA-N
[3] = test system: UACC-62 melanoma
[4] = test system: OVCAR-5 ovarian
[5] = test system: DU-145 prostate
[6] = test system: EKVX NSCLC
[7] = test system: SNB-19 CNS
[8] = test system: SNB-75 CNS
[9] = test system: RXF 393 renal
[10] = test system: T-47D breast
[11] = test system: LOX IMVI melanoma

Row | Compound | TGI [1] [µM] | TGI [2] [µM] | TGI [3] | TGI [4] | TGI [5] | TGI [6] | TGI [7] | TGI [8] | TGI [9] | TGI [10] | TGI [11] | GI50 [9] [µg/mL] | GI50 [10] [µg/mL] | GI50 [3] | GI50 [4] | GI50 [11] [µg/mL] | GI50 [5] | GI50 [6] | GI50 [7] | GI50 [8]
1 | COC(=O)C(Cc1cn(C(C)n2cc(CC(NC(C)=O)C(=O)OC)c3ccccc32)c2ccccc12)NC(C)=O (stereo not drawn) | > 100 | > 100 | > 100 µM | > 100 µM | > 100 µM | > 100 µM | > 100 µM | 83.3 µM |  |  |  |  |  |  |  |  |  |  |  | 
2 | OCc1ccc2c(c1)CC1(C2)Cc2cc3c(cc2C1O)CCC3 (stereo not drawn) | 10 |  | 16.2 µM | 56.1 µM | 67.1 µM | 40.1 µM | > 100 µM | 16.8 µM | 18.4 µM | 9.44 µM | 19.4 µM |  |  |  |  |  |  |  |  | 
3 | CCOC(=O)/C=C/c1nc(C#N)c(N)o1 |  | > 100 | > 100 µM | > 100 µM | > 100 µM | > 100 µM | > 100 µM | > 100 µM | > 100 µM |  | > 100 µM |  |  |  |  |  |  |  |  | 
4 | O=C1NN(C2=NNC3(C(=O)N2)c2ccccc2-c2ccccc23)C(c2ccccc2)=N/C1=C/c1ccc(Cl)cc1 |  |  | 65.6 µg/mL | > 150 µg/mL | > 150 µg/mL | 108 µg/mL | 59.9 µg/mL | > 150 µg/mL | > 150 µg/mL | 149 µg/mL | > 150 µg/mL | 56.9 (≈ 104 µM) | 13.4 (≈ 24.6 µM) | 29.8 µg/mL | 132 µg/mL | 56.1 (≈ 103 µM) | 89.1 µg/mL | 38.7 µg/mL | 28.3 µg/mL | 57.2 µg/mL
5 | CSCC[C@@H](NC(=O)[C@H](CC(C)C)NC(=O)C(Cc1cnc[nH]1)NC(=O)CNC(=O)[C@@H](NC(=O)[C@H](C)NC(=O)[C@H](Cc1c[nH]c2ccccc12)NC(=O)[C@H](CCC(N)=O)NC(=O)[C@@H](N)CC(N)=O)C(C)C)C(N)=O (stereo partly drawn) | > 100 |  | > 100 µM | > 100 µM |  | > 100 µM | > 100 µM | > 100 µM | > 100 µM |  | > 100 µM |  |  |  |  |  |  |  |  | 
6 | COC(=O)/C=C(\C)CC/C=C(\C)CCC1OC1(C)C (stereo not drawn) |  | 21.9 | 19.8 µM | 25.3 µM |  | 24.3 µM | > 75 µM | 38.8 µM | 23.8 µM |  | 11 µM |  |  |  |  |  |  |  |  | 
7 | COCOc1ccc(C(=O)Oc2cccc3c2OC(C)(C)O3)c(OCOC)c1 |  | > 100 | 95.7 µM | > 100 µM | > 100 µM | > 100 µM |  | > 100 µM | > 100 µM | > 100 µM | > 100 µM |  |  |  |  |  |  |  |  | 
8 | CCCCI(O)OS(=O)(=O)c1ccc(C)cc1 | 48.9 |  | > 100 µM | > 100 µM | > 100 µM | > 100 µM | > 100 µM | > 100 µM | > 100 µM | > 100 µM | 30.8 µM |  |  |  |  |  |  |  |  | 
9 | Cc1c2ccnc(C(N)=O)c2c(C)c2c1[nH]c1ccccc12 | 31.6 |  | 15.8 µM and 20.4 µM | 37.4 µM and 33.3 µM |  | 35.3 µM and 46.8 µM | 46.9 µM and 19.9 µM | 24.6 µM and 39.9 µM | 16.6 µM |  | 21.2 µM |  |  |  | 6.41 µM |  |  | 6.56 µM | 4.45 µM | 13.8 µM
10 | Cc1nc2ccc(Cl)cc2c(-n2ccnc2)c1CCn1ccnc1 | 70.9 | 84.7 | 62.5 µM | > 100 µM | > 100 µM |  | > 100 µM | 72.8 µM | 53.1 µM |  | > 100 µM |  |  |  |  |  |  |  |  | 
11 | Cc1c(N2CCOCC2)nc2ccc(Cl)cc2c1-c1ccccc1 | > 100 |  | > 100 µM |  |  | > 100 µM | > 100 µM | > 100 µM | > 100 µM |  | > 100 µM |  |  |  |  |  |  |  |  | 
12 | O=C(c1ccco1)N(C(=O)N1CCCCC1)c1ccccc1 |  | > 100 | > 100 µM | > 100 µM | > 100 µM | > 100 µM | > 100 µM |  | > 100 µM |  | > 100 µM |  |  |  |  |  |  |  |  | 
13 | CC(C)C(Br)CCC1=CCC(Br)(Br)C1 (stereo not drawn) | 6.81 | 10.4 | 19.9 µM | 30.5 µM | 32.5 µM | 32.5 µM | 32 µM | 23.3 µM | 29 µM |  | 3.05 µM |  |  |  |  |  |  |  |  | 
14 | COc1cc2ccc3c4cc(OC)c(OC)cc4c[n+](C)c3c2cc1O | 78.7 |  | > 100 µM | > 100 µM |  | > 100 µM | > 100 µM | > 100 µM | > 100 µM |  | > 100 µM |  |  |  |  |  |  |  |  | 
15 | CCc1c(O)cc(=O)oc1-c1ccc(OC)c(OC)c1 | > 100 |  | > 100 µM | > 100 µM | > 100 µM | > 100 µM | > 100 µM | > 100 µM | > 100 µM | > 100 µM | > 100 µM |  |  |  |  |  |  |  |  | 
16 | COC(=O)[C@]1(C)CCC[C@@]2(C)C1CC[C@]13C=C(C(C)C)[C@H](CC21)CC3(Cl)C#N (stereo partly drawn) | > 100 |  | > 100 µM | > 100 µM | > 100 µM | 77.3 µM | > 100 µM | > 100 µM | 97.5 µM | 55.8 µM |  |  |  |  |  |  |  |  |  | 

Row | Compound | TGI [1] [µM] | TGI [2] [µM] | TGI [3] | TGI [4] | TGI [5] | TGI [6] | TGI [7] | TGI [8] | TGI [9] | TGI [10] | TGI [11] | GI50 [9] [µg/mL] | GI50 [10] [µg/mL] | GI50 [3] | GI50 [4] | GI50 [11] [µg/mL] | GI50 [5] | GI50 [6] | GI50 [7] | GI50 [8]
17 | CN(C)c1ccc(/C=C(\NC(=O)c2ccccc2)C(=O)NC(CC(=O)O)C(=O)O)cc1 (stereo not drawn) | 46.8 |  | > 100 µM | > 100 µM | > 100 µM | > 100 µM | > 100 µM | 94.5 µM | > 100 µM | > 100 µM | > 100 µM |  |  |  |  |  |  |  |  | 
18 | CC(=O)O[C@@H](c1nccn1Cc1ccccc1)[C@H]1OC(C)(C)O[C@@H]1[C@H]1COC(C)(C)O1 | > 100 | > 100 | > 100 µM | > 100 µM | > 100 µM | > 100 µM |  | > 100 µM | > 100 µM |  | > 100 µM |  |  |  |  |  |  |  |  | 
19 | Cc1ccccc1-c1nc2c(N)nc(N)nc2nc1N | > 100 | > 100 | > 100 µM | > 100 µM | > 100 µM | > 100 µM | > 100 µM | > 100 µM |  |  | > 100 µM |  |  |  |  |  |  |  |  | 
20 | c1ccc(-c2c(-c3ccccc3)[n+](Cc3ccc4ccccc4c3)c(-c3ccc(-c4nc5ccccc5s4)cc3)n2Cc2ccc3ccccc3c2)cc1 |  |  | 1.25 µM | 1.17 µM | 1.03 µM | 1.19 µM | 1.26 µM | 0.895 µM |  |  |  |  |  | 0.236 µM | 0.311 µM |  | 0.262 µM | 0.187 µM | 0.0784 µM | 0.201 µM
21 | NS(=O)(=O)c1nnc(NC(=O)N(c2ccccc2)c2ccccc2)s1 | 40.9 | 88.3 | 59.1 µM | 70.1 µM | 41 µM | 78.2 µM | > 100 µM | 72.4 µM | 51.4 µM |  | 40.2 µM |  |  |  |  |  |  |  |  | 
22 | Cc1ccc(-c2cc(-c3ccco3)c(C#N)c(=S)[nH]2)cc1 | > 100 |  | > 100 µM | > 100 µM | > 100 µM | > 100 µM | > 100 µM | > 100 µM | > 100 µM | 71.5 µM | > 100 µM |  |  |  |  |  |  |  |  | 
23 | O=C1C=CC2(O[C@H](c3ccccc3)[C@@H](c3ccccc3)O2)[C@H](Sc2ccccc2O)C1 | 0.182 | 1.13 | 2.13 µM | 4.49 µM | 2.59 µM | 3.31 µM | 3.74 µM | 8.16 µM | 0.524 µM |  | 0.338 µM |  |  |  |  |  |  |  |  | 
24 | OCc1cn(Cc2ccccc2)c2ccccc12 | 17.1 | > 65.5 | 4.98 µM | 0.838 µM | > 37.2 µM | > 100 µM | > 100 µM | 5.64 µM | 4.53 µM |  | > 45.3 µM |  |  |  |  |  |  |  |  | 
25 | CCOC(=O)c1csc(NC(=O)C(C)N2CCCC2)n1 (stereo not drawn) |  | > 100 | > 100 µM | > 100 µM | > 100 µM |  | > 100 µM | > 100 µM | > 100 µM | > 100 µM | > 100 µM |  |  |  |  |  |  |  |  | 
26 | COC(=O)CC(=O)OSc1ccccc1 | 12.8 |  | 29.5 µM | > 100 µM |  | 89.2 µM | > 100 µM |  | 25.3 µM |  | 26.9 µM |  |  |  |  |  |  |  |  | 
27 | COC(=O)CNC(=O)C(CSC(=O)OCC1c2ccccc2-c2ccccc21)NC(=O)CCC(NC(=O)OCC1c2ccccc2-c2ccccc21)C(=O)OC (stereo not drawn) | 17 | 38.5 |  | 76.7 µM | > 100 µM | > 100 µM | 68.1 µM |  | 32 µM |  | 21.1 µM |  |  |  |  |  |  |  |  | 
28 | CC1CC(N2CCOCC2)=Nc2ccccc2N1C (stereo not drawn) | > 100 | > 100 | > 100 µM | > 100 µM | > 100 µM | > 100 µM | > 100 µM | 89.7 µM | > 100 µM |  |  |  |  |  |  |  |  |  |  | 
29 | CC(=O)NNc1nc(C)c(C(=O)NNC(=O)C(=O)Nc2ccc([N+](=O)[O-])cc2[N+](=O)[O-])s1 | > 100 |  | > 100 µM | > 100 µM |  | > 100 µM | > 100 µM | > 100 µM | > 100 µM |  | > 100 µM |  |  |  |  |  |  |  |  | 
30 | Cn1c2ccccc2n2c3ncccc3c(=O)c(C#N)c12 | 35.4 |  | 28.4 µM | > 100 µM | 24.7 µM | > 100 µM | > 62.5 µM | > 79.9 µM | > 56.4 µM | > 100 µM | 23.1 µM |  |  |  |  |  |  |  |  | 
31 | Cc1c2cccc-2c2cc(O)c3ccccc3c2n1-c1ccc(N(C)C)cc1 | 33 | 36.9 | 29.5 µM | 24.7 µM |  | 11.7 µM | 30 µM | 17.5 µM |  | 0.829 µM | 27.8 µM |  |  |  |  |  |  |  |  | 
32 | N#Cc1c(-c2ccc([N+](=O)[O-])cc2)cc(-c2ccc(Nc3ccnc4cc(Cl)ccc34)cc2)[nH]c1=O | > 100 |  | > 100 µM | > 100 µM | > 100 µM | > 100 µM | > 100 µM | > 100 µM | > 100 µM | > 100 µM | > 100 µM |  |  |  |  |  |  |  |  | 
